Measured values: patent US5739131A, “Benzene derivatives and pharmaceutical composition” (Kureha Chemical Industry Co., Ltd., priority 1994, dated 1998)
Where two headings read alike, the source gives them in different places.

Assays:
mice = test: Acute toxicity, single oral dose; format: in vivo
Method: Five-week-old ICR female mice (5 mice per group) were bred for acclimation for a week. Then, the compounds of the present invention were dissolved or dispersed in an aqueous solution of 0.5% methylcellulose, and orally administered to the mice in a single dosage (500 mg/kg).

[1] = target: T1, angiotensin II receptor subtype 1 (AT1) (Oryctolagus cuniculus, UniProt P34976); test: Binding assay, angiotensin II receptor subtype 1 (AT1); design: species or system rabbit (adrenal glands); conditions: for inhibition at 100 µM: AT1, rabbit adrenal glands
T1 construct: receptor: from adrenal glands in rabbits; from tissue; host or cells: rabbit adrenal glands
T1 sequence (P34976 1-359): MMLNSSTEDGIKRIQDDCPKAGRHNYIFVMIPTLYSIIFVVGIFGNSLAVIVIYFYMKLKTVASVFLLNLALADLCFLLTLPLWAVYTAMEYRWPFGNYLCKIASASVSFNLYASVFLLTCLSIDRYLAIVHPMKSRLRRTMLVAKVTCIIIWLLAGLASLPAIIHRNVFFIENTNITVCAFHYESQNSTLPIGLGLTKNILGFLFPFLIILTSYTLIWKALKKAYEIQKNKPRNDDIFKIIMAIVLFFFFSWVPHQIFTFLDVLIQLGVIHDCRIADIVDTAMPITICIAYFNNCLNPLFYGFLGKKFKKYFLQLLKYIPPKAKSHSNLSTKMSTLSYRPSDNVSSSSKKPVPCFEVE
Method: (§1) In this Example, the affinity to the angiotensin II receptor subtype 1 or subtype 2 was evaluated by a binding assay in accordance with the method described in Biochem. Pharmacol., 33, 4057-4062 (1984).
(§2) Specifically, the measurement of the total binding in the presence of each drug was performed as follows:
(§3) A mixture (final volume=0.25 ml) of a drug in a given concentration (the drug was dissolved in DMSO, and diluted to a double volume with a buffer attached to a drug discovery system to prepare sample for the assay; 0.025 ml), a tracer (0.025 ml), and receptors (0.2 ml) was incubated [in the case of the angiotensin II receptor subtype 1 (AT1), at room temperature for 3 hours, and in the case of the subtype 2 (AT2), at 37° C. for 1 hour]. Then, the reaction mixture was filtered with suction (GF/C filter was used in AT1, and GF/B filter was used in AT2). The filter papers after filtration with suction (the tracer bound to the receptors) were counted by a γ-well counter (ARC-500, Aloka). The non-specific bindings were measured by repeating the above method, except that a large excess amount of a displacer was added. The specific binding of the drug in the given concentration was calculated by subtracting the non-specific binding from the total binding, respectively.
(§4) In AT1 and AT2, the percentages to inhibit the bindings of radioactive ligands (tracer) to receptors by the drugs to be tested (IC50 value of concentration to show 50% inhibition, or binding inhibition % in 100 μM) were measured, using the drugs to be tested and control drugs in the given concentration.

[2] = tested on: kidney disease model rats; test: Renal function indicatory value (action to kidney diseases); format: in vivo, Sprague-Dawley female rats; conditions: 20 mg/kg/day per os, two weeks; for Creatinine clearance: 24 hours urine, control 0.20; for Creatinine / Urea nitrogen: serum; for Creatinine: control 2.0; for Urea nitrogen: control 100
Method: The kidney disease model rats were prepared as in Example 115. Twenty-five groups (8 rats per group) were sleeked in a manner so that there were no major differences between each group in the serum creatinine value and the urea nitrogen value indicating renal function. The rats in each group were allowed to freely take up feed and water. […] To the rats in the control group, only water was forcedly administered per os every day. After two weeks, 0.2 ml of blood was collected from the carotid artery of the rat under anesthesia, and centrifuged to obtain serum. Using 25 μl of the serum, serum creatinine (Scr) was measured by a creatinine analytical instrument (Beckman). Using 10 μl of the serum, urea nitrogen (BUN) was measured by a BUN analytical instrument (Beckman). Creatinine clearance was evaluated as follows:
After serum creatinine measurement, rats were placed in urinary metabolic cages for 24 hours to collect urine. Urinary creatine concentration (Ucr) was measured by a creatinine analytical instrument, and total volume of urination (Uvol) was also measured. Creatinine clearance (CCr) was calculated by the following formula: [formula]

[3] = tested on: kidney disease model rats; test: Action to survival time of kidney diseased animals; format: in vivo, Sprague-Dawley female rats; conditions: 20 mg/kg/day per os, observation eight weeks (upper limit); control 5.0
Method: The kidney disease model rats were prepared as in Example 115. Twenty-five groups (8 rats per group) were prepared in a manner so that there was no major difference between the groups in the serum creatinine value and the urea nitrogen value indicating renal function. The rats in each group were allowed to freely take up feed and water. […] To the rats in the control group, only water was forcedly administered per os every day. If kidney diseases are aggravated, the rat will die of uremia. Thus, the survival time was observed as comprehensive indication of the improvement effect on the kidney diseases. The observation period was eight weeks. Thus if all rats survived, the average survival time is eight weeks and it is an upper limit.

[4] = target: T2, angiotensin II receptor subtype 2 (AT2) (Bos taurus, UniProt G5E6F7); test: Binding assay, angiotensin II receptor subtype 2 (AT2); design: species or system bovine (cerebellar cortex); conditions: read-out: Binding inhibition % in 100 μm, AT2
T2 construct: receptor: from cerebellar cortex in bovine; from tissue; host or cells: bovine cerebellar cortex
T2 sequence (G5E6F7 1-362): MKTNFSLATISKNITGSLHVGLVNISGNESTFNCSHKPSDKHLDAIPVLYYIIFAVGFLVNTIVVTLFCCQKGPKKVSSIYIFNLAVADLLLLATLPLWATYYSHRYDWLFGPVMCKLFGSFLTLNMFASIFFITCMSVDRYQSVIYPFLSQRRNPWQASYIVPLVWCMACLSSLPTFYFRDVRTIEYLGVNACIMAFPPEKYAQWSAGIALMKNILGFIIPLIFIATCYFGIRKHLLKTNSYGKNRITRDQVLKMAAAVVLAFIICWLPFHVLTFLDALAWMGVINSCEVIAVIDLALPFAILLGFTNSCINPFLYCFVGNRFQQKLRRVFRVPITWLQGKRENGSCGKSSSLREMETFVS
Method: as §1, §2, §3, §4
receptor: from cerebellar cortex in bovine
tracer: ^125 ITyr^4angiotensin II
control drug: angiotensin II (human)
(displacer): angiotensin II (human)

[5] = tested on: kidney disease model rats; test: Action to depress blood pressure (tail cuff method); format: in vivo, Sprague-Dawley female rats; conditions: systolic, average, 20 mg/kg per os, two days from administration; control (water) 203
Method: The compounds of the present invention and the reference substance were forcedly administered per os to kidney disease model rats, and the action to depress blood pressure was observed. The kidney disease model rats were prepared by ligature of branches of renal artery in accordance with the conventional method, that is, the left hilum renalis of Sprague-Dawley female rats was exposed under anesthesia, and one of four secondary branches of renal artery was left unligated, while the remaining three branches were ligated, respectively. After a week, the hilum renalis (artery, vein, and ureter) of the right kidney were further ligated to thereby prepare the rats whose renal function was lowered to approximately 1/8 of the normal function. Each group consisted of eight rats. The drugs to be tested (20 mg/kg) were administered to each administering group, and only water was administered to control group. After two days from the administration, the systolic blood pressure was measured by the tail cuff method using a blood pressure measuring apparatus (UR5000; Ueda).

[6] = 100 μM, AT2, bovine cerebellar cortex, 37° C. 1 hour
[7] = tracer 3H angiotensin II, room temperature 3 hours, read-out: IC50 AT1
[8] = mice, single oral 500 mg/kg, observed for 6 days, 5 per group

Compound	Number of deaths/number of survivals (mice; mouse, in vivo, po, 500 mg/kg)	inhibition at 100 µM [1]	Creatinine clearance [2]	Creatinine [2]	Urea nitrogen [2]	Average survival time [3]	inhibition at 100 µM [4, 6]	Blood pressure [5]	IC50 [1, 7]	Number of deaths/number of survivals (mice; [8])	IC50 [1]	inhibition at 100 µM [4]
CCCCC(=O)N(Cc1ccc(C(=O)O)cc1)c1cc(C(=O)N2CCOCC2)ccn1 [Compound No. 467, 2-N-[[(4-carboxyphenyl)methyl]valeramido]isonicotinic acid morpholide]	0/5	16%	0.25 mL/min	1.8 mg/dL	74 mg/dL	7.0 weeks	0%	200 mmHg				
CCCCCN(Cc1ccc(C(=O)O)cc1)c1cc(C(=O)N2CCOCC2)ccn1 [Compound No. 535, 2-[N-n-amyl-N-(4-carboxyphenyl)methyl]aminoisonicotinic acid morpholide]	0/5		0.38 mL/min	1.5 mg/dL	72 mg/dL	7.6 weeks	0%	195 mmHg	3.8 µM			
CCCCC(=O)Nc1ccc(C(=O)N2CCOCC2)cc1NCc1ccc(-c2ccccc2-c2nnn[nH]2)cc1 [Compound No. 585, 3-[[2'-(1H-tetrazol-5-yl)biphenyl-4-yl]methylamino]-4-valeramidobenzoic acid morpholide]			0.35 mL/min	1.6 mg/dL	72 mg/dL	7.3 weeks	0%	196 mmHg	1.7 µM	0/5		
CCCCC(=O)Nc1ccc(C(=O)N(CC)CC)cc1NCc1ccc(-c2ccccc2-c2nn[nH]n2)cc1 [Compound No. 586, [3-[[2'-(1H-tetrazol-5-yl)biphenyl-4-yl]methylamino]-4-valeramido]benzoic acid diethylamide]			0.33 mL/min	1.7 mg/dL	76 mg/dL	6.8 weeks		198 mmHg		0/5	1.2 µM	0%
CCCCC(=O)Nc1ccc(C(=O)N2CCOCC2)cc1OCc1ccc(-c2ccccc2-c2nnn[nH]2)cc1 [Compound No. 587, 3-[[2'-(1H-tetrazol-5-yl)biphenyl-4-yl]methyloxy]-4-valeramidobenzoic acid morpholide]			0.34 mL/min	1.7 mg/dL	77 mg/dL	7.0 weeks	0%	201 mmHg	7.9 µM	0/5		
CCCCC(=O)N(Cc1ccc(-c2ccccc2-c2nn[nH]n2)cc1)c1cc(C(=O)N2CCOCC2)ccc1N(C)C [Compound No. 591, 4-dimethylamino-3-N-[2'-[(1H-tetrazol-5-yl)biphenyl-4-yl]methyl]valeramidobenzoic acid morpholide]	0/5	35%		1.6 mg/dL	76 mg/dL	7.3 weeks	0%	199 mmHg				
CCCCC(=O)N(Cc1ccc(-c2ccccc2-c2nn[nH]n2)cc1)c1cc(C(=O)N2CCOCC2)ccc1NC(C)=O [Compound No. 592, 4-acetamido-3-N-[[[2'-(1H-tetrazol-5-yl)biphenyl-4-yl]methyl]valeramido]benzoic acid morpholide]	0/5		0.33 mL/min	1.7 mg/dL	76 mg/dL	7.0 weeks	0%	202 mmHg	4.9 µM			
CCCCCN(C)c1c(NCc2ccc(-c3ccccc3-c3nn[nH]n3)cc2)cc(C(=O)N2CCOCC2)cc1NC(=O)C(c1ccccc1)c1ccccc1 [Compound No. 593, 4-(N-n-amyl-N-methyl)amino-5-(diphenylacetamido)-3-[[2'-(1H-tetrazol-5-yl)biphenyl-4-yl]methylamino]benzoic acid morpholide]	0/5	36%	0.31 mL/min	1.6 mg/dL	80 mg/dL	7.1 weeks	0%	200 mmHg				
CCCCC(=O)Nc1ccc(C(=O)N2CCOCC2)cc1N(Cc1ccc(-c2ccccc2-c2nn[nH]n2)cc1)Cc1ccc(-c2ccccc2-c2nn[nH]n2)cc1 [Compound No. 594, 3-[di-[2'-(1H-tetrazol-5-yl)biphenyl-4-yl]methylamino]-4-valeramidobenzoicacid morpholide]			0.30 mL/min	1.7 mg/dL	77 mg/dL	6.5 weeks	0%	194 mmHg	32 µM	0/5		
